Measurements as given in US10675256B2, “Methods for inhibiting conversion of choline to trimethylamine (TMA)” (The Procter & Gamble Company, priority 2017, dated 2020).
Read-outs that look alike come from different tables or passages of the source.

Columns and labels:
[1] = tested on: Proteus mirabilis 29906 (Pm) lysate; assay: Inhibition of formation of TMA from choline in Proteus mirabilis lysate (EXAMPLE 2); assay type: biochemical; details: Proteus mirabilis 29906 lysate, d9-choline chloride substrate, 37° C. for two hours; read-out: TMA Inhibition (IC50, mol/L)
[2] = molecular target: T1, recombinant D. alaskensis Cut C/D lysate (Oleidesulfovibrio alaskensis, UniProt Q30W70); assay: Inhibition of conversion of choline to TMA by recombinant D. alaskensis Cut C/D lysate (EXAMPLE 5); assay type: biochemical
T1 construct: made in house
T1 sequence (Q30W70 whole entry): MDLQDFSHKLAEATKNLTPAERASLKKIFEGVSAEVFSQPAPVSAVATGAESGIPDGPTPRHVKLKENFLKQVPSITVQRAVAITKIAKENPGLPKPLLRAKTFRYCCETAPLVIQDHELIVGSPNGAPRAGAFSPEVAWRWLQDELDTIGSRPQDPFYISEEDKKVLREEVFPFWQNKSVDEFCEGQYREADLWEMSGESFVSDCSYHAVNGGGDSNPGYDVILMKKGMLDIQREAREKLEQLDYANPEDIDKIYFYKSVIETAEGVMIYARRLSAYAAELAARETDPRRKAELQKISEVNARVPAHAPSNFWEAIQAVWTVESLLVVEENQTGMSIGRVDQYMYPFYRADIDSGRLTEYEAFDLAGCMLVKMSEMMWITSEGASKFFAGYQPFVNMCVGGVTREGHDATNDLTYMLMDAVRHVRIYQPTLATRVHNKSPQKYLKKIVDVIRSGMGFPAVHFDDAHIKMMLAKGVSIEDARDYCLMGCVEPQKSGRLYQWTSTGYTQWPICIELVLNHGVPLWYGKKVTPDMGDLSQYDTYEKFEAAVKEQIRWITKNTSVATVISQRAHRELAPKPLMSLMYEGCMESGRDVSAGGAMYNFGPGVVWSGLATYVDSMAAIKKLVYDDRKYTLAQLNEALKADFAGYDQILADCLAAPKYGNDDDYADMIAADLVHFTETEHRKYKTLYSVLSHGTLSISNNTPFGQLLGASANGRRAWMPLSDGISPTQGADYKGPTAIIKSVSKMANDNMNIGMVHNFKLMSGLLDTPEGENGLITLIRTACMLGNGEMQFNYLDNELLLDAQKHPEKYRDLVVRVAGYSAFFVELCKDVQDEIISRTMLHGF
Method: (§1) Ability of compounds to inhibit the conversion of choline to TMA in cell lysates or whole cells were determined using methods as described in Wang, Z, Roberts, A B, Buffa J A, et al. (2015) Non-lethal inhibition of gut microbial trimethylamine production for the treatment of atherosclerosis, Cell 163: 1585-1595. Briefly, efficacy was measured as IC50 (nM) by inhibition of conversion of choline to TMA metabolized by recombinant P. mirabilis Cut C/D lysate; recombinant D. alaskensis Cut C/D lysate, or whole cell wild-type P. mirabilis.

plasma TMAO = assay: Preclinical screening method, plasma TMAO in mice on 1% choline diet (EXAMPLE 4); assay type: in vivo, mice (C57bl/6); details: 1% Choline Added diet, oral gavage 310 mg/kg/day, 3 days, blood 20 hours post gavage
Method: Starting at day 0, mice (C57bl/6, ˜19 g, 10 wk of age; n=5/group) were maintained in accordance with the NIH guidelines in a 12:12 hr light:dark cycle and provided with 1% Choline Added diet (Envigo custom formulation prepared, similar to Teklad Global Rodent Diet 2018) ad libitum. Concurrent with introduction of the diet, mice were gavaged once daily orally using a 1.5″ 22G ball-tip curved feeding needle to administer compound in 200 μl or less of water at one or multiple of the dose 0, 1.0, 3.1, 10, 31, 100 or 310 mg/kg/day. Urine was collected once daily in the morning. Animals were restrained by hand and bladder was expressed by gentle palpation of the pelvic region. […]
For measurement of TMA in plasma, samples were acidified (10 mM HCl final) prior to storage at −80° C. TMAO and TMA and their d9-isotopologues were quantified using stable isotope dilution HPLC with on-line electrospray ionization tandem mass spectrometry ([…]) methods as described in (Wang Z, Klipfell E, Bennett B J, et al. (2011) Gut flora metabolism of phosphatidylcholine promotes cardiovascular disease. Nature 472:57-63) using d4(1,1,2,2)-choline, d3(methyl)-TMAO, and d3(methyl)-TMA as internal standards. […]

[3] = molecular target: recombinant P. mirabilis Cut C/D lysate (Proteus mirabilis, UniProt B4EYG1); assay: Inhibition of conversion of choline to TMA by recombinant P. mirabilis Cut C/D lysate (EXAMPLE 5); assay type: biochemical
Sequence of recombinant P. mirabilis Cut C/D lysate (B4EYG1 entry or part of it): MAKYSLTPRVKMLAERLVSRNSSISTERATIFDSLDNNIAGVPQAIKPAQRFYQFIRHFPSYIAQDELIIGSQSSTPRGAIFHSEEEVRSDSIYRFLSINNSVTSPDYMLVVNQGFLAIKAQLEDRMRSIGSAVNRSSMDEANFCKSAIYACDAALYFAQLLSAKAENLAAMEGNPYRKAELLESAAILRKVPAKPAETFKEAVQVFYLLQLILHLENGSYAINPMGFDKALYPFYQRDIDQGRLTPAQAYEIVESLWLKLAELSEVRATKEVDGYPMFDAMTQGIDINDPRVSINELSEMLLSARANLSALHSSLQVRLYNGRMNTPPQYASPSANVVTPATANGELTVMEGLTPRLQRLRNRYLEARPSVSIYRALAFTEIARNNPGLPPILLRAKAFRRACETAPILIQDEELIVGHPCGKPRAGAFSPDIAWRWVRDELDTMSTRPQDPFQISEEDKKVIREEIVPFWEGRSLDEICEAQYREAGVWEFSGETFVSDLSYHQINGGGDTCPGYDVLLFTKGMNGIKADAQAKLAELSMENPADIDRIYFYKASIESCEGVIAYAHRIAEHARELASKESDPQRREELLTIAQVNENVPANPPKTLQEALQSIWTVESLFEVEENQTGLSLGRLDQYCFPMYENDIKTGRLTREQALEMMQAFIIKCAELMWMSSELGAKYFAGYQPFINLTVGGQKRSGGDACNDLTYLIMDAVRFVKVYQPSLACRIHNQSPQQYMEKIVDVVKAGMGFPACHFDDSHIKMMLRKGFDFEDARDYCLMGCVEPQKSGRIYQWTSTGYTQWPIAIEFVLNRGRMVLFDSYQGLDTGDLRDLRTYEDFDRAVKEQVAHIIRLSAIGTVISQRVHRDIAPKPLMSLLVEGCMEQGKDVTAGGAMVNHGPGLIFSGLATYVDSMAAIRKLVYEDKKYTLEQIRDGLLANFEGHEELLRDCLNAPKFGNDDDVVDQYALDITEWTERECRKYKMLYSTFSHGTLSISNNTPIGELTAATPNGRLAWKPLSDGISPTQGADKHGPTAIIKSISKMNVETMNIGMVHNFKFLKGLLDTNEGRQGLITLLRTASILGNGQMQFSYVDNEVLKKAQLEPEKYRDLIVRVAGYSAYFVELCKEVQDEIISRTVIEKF
Sequence of recombinant P. mirabilis Cut C/D lysate (B4EYG0 entry or part of it, further chain): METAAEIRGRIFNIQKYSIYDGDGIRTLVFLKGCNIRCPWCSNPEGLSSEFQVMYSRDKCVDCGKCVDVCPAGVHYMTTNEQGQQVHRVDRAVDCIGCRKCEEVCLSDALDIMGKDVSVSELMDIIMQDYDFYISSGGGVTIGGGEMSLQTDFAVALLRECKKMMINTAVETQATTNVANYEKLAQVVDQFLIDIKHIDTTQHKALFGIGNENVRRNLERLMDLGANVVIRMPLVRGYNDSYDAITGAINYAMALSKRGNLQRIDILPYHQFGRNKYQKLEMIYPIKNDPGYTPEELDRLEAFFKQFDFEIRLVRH
Method: as §1

[4] = tested on: conversion of choline to TMA; assay: Rapid preclinical method, d9-choline challenge in mice (EXAMPLE 6); assay type: in vivo; details: oral gavage with 2 mg d9-Choline, plasma at 3 hr
Method: Challenge: C57bl/6 female mice (8 wk of age ˜20 g BW) were maintained in accordance with the NIH guidelines in a 12:12 hr light:dark cycle on normal chow diet were placed in a clean cage without food ˜1 hr prior to gavage. […] Food was returned after a 2 hr fast (1 hr after gavage administration). Blood (30 μL) was collected into a heparinized capillary tube 2, 3 and 4 hours after gavage. Blood was kept at 4° C., then spun using a centrifuge (5 min in centrifuge designed to capillary tubes) to separate plasma and hematocrit within 4 hours after collection. Plasma samples were stored at −80° C. Concentration of d9 Choline, d9TMA and d9TMAO was measured by LC-MS/MS.
Flora Normalization: Twenty four hours post-gavage mice were placed in a clean cage and fecal material from conventional mice was spread in all the cages.

[5] = tested on: whole cell wild-type P. mirabilis; assay: Inhibition of conversion of choline to TMA by whole cell wild-type P. mirabilis (EXAMPLE 5); assay type: cell-based; details: Proteus mirabilis, read-out: EC50 (mol/L) whole cell wild-type P. mirabilis
Method: as §1

[6] = tested on: human fecal polymicrobial community; assay: Human fecal polymicrobial incubation with d9-choline, TMA inhibition (EXAMPLE 3); assay type: cell-based; details: human fecal slurry 0.2% (w/v), 50 μM d9-choline chloride, 20 hours at 37° C., anaerobic; read-out: TMA Inhibition (IC50, mol/L)
Method: Human fecal polymicrobial incubation with deuterium labeled choline compound screening method, including cell viability assay. All materials were pre-reduced in an anaerobic chamber for 24 hours before using in the experiments and experimental procedures were performed under anaerobic conditions (chamber purged with 85% nitrogen, 5% hydrogen, 10% carbon dioxide).
Human fecal samples were collected from a healthy volunteer with no chronic illnesses, blood borne diseases or active infections. The volunteer had not received antibiotics within two months prior to donation and provided written informed consent. Samples were diluted to make a 20% (w/v) fecal slurry by resuspension of the feces in a media containing 3% (w/v) tryptic soy broth, 1% (w/v) trehalose, pH 7.3. The fecal slurry was homogenized and filtered by hand using a stomacher bag with an integrated 170 μm membrane. DMSO (5% (w/v)) was added to the filtered slurry and aliquots were stored in cryogenic vials at −80° C. until use. Frozen fecal slurries were diluted to 0.2% (w/v) with M9 media (Na2HPO4 (6 g/L), KH2PO4 (3 g/L), NaCl (0.5 g/L) with addition of 0.1 mM CaCl2 and 1 mM MgSO4) and dispensed (1 mL) into deep well 96-well plates. Diluted fecal slurries containing 50 μM d9-choline chloride and compounds in doses ranging from 500 μM to 3.81 nM were sealed and incubated at 37° C. with shaking. After 20 hours, an aliquot of the fecal polymicrobial community was analyzed for viability using PrestoBlue cell viability reagent (Thermo Fisher Scientific, USA) as described below. The reaction plates were subsequently centrifuged (4000×g at 4° C. for 12 min) to pellet fecal material and 150 μl aliquots were transferred and quenched with addition of formic acid to 1% (v/v). All fecal processing and polymicrobial assay steps were performed in an anaerobic environment. The products were determined by LC/MS/MS and IC50 values were calculated as described previously for detection and analysis of TMA and d9-TMA in EXAMPLE 2.

| Compound | IC50 [1] [µM] | IC50 [6] [µM] | other results |
| --- | --- | --- | --- |
| C#CC[N+](C)(C)C1CC1 [ID 3, N,N-dimethyl-N-(prop-2-yn-1-yl)cyclopropanaminium bromide] | – | – | IC50 [2]: 0.11 µM; Remaining plasma TMAO as a percentage of plasma TMAO in same day vehicle control (% of control remaining) (plasma TMAO): 23%; IC50 [3]: 0.15 µM; Calculated EC50 (mg/kg) compared to Vehicle Control [4]: 0.04 mg/kg; EC50 ([5]; inhibition of conversion of choline to TMA): 0.038 µM |
| C[N+](C)(CCO)C1CC1 [ID 1, Cyclopropane-dimethyl-ethanolamine iodide] | – | – | IC50 [2]: 0.087 µM; Remaining plasma TMAO as a percentage of plasma TMAO in same day vehicle control (% of control remaining) (plasma TMAO): 5%; IC50 [3]: 0.0062 µM; Calculated EC50 (mg/kg) compared to Vehicle Control [4]: 0.75 mg/kg; EC50 [5]: 0.0481 µM |
| C[N+](C)(CF)C1CC1 [N-(fluoromethyl)-N,N-dimethylcyclopropanaminium iodide] | 60 | – | IC50 [2]: 45 µM; IC50 [3]: 21 µM |
| C[N+](C)(CCO)C1CC1 [compound 1] | 0.000251 | 135 | – |
| C#CC[N+](C)(C)C1CC1 [compound 3, N,N-dimethyl-N-(prop-2-yn-1-yl)cyclopropanaminium] | 0.0331 | 0.428 | – |
| C=CC[N+](C)(C)C1CC1 [compound 2, N-allyl-N,N-dimethylcyclopropanaminium] | 0.00398 | 53.2 | – |

Continued, in another order:

| IC50 [1] [µM] | IC50 [6] [µM] | Compound | other results |
| --- | --- | --- | --- |
| 4.65 | – | COC(=O)C(=O)C[N+](C)(C)C1CC1 [compound 6, N-(3-methoxy-2,3-dioxopropyl)-N,N-dimethylcyclopropanaminium] | – |
| 202 | – | C[N+](C)(CC(N)=O)C1CC1 [compound 8, N-(2-amino-2-oxoethyl)-N,N-dimethylcyclopropanaminium] | – |
| 945 | – | CCOC(=O)CCCCC[N+](C)(C)C1CC1 [compound 9, N-(6-ethoxy-6-oxohexyl)-N,N-dimethylcyclopropanaminium] | – |
| 89.2 | 134 | COC(=O)C[N+](C)(C)C1CC1 [compound 4, N-(2-methoxy-2-oxoethyl)-N,N-dimethylcyclopropanaminium] | – |
| 50.4 | 166 | C=C(C[N+](C)(C)C1CC1)C(=O)OC [compound 5, N-(2-(methoxycarbonyl)allyl)-N,N-dimethylcyclopropanaminium] | – |
| 1.28 | – | C#CC[N+]1(C2CC2)CCOCC1 [compound 10, 4-cyclopropyl-4-(prop-2-yn-1-yl)morpholin-4-ium] | – |
